Biological target: T1, pVER-IPTG-WT (Escherichia coli, UniProt P03023)
T1 construct: gene lacI; full-length LacI expressed from pVER plasmid; wild type
Assay: In vivo IPTG dose-response of LacI-regulated eYFP expression from the pVER plasmid in E. coli grown in rich M9 medium at 37 °C, measured by flow cytometry and fitted to the Hill equation by Bayesian MCMC (posterior mean and SD).
Assay type: cell-based
Settings: read-out: log_ec50 (base-10 logarithm of EC50 in μmol/L) (converted)
Description: All reported measurements were completed using E. coli strain MG1655Δlac, in which the lactose operon of E. coli strain MG1655 (ATCC #47076) was replaced with the bleomycin resistance gene from Streptoalloteichus hindustanus (Shble).
Dose-response curves were measured with flow cytometry using E. coli MG1655Δlac transformed with variants of the pVER plasmid, described previously. The plasmid contained different variants of the lacI coding DNA sequence (CDS), as described in the text, and an expression cassette with enhanced yellow fluorescent protein (eYFP) under the control of the lactose operator (lacO). The lacI CDS was verified with Sanger sequencing for each variant. […]
Flow cytometry samples were measured with an Attune NxT flow cytometer equipped with a 96-well plate autosampler using a 488 nm excitation laser and a 530 nm ± 15 nm bandpass emission filter. Blank samples were measured with each batch of cell measurements, and an automated gating algorithm was used to discriminate cell events from non-cell events. Fluorescence calibration beads (Spherotech, part no. RCP-30-20A) were also measured with each batch of samples to facilitate calibration of flow cytometry data to molecules of equivalent fluorescein (MEF). […]

T1 sequence (P03023 whole entry): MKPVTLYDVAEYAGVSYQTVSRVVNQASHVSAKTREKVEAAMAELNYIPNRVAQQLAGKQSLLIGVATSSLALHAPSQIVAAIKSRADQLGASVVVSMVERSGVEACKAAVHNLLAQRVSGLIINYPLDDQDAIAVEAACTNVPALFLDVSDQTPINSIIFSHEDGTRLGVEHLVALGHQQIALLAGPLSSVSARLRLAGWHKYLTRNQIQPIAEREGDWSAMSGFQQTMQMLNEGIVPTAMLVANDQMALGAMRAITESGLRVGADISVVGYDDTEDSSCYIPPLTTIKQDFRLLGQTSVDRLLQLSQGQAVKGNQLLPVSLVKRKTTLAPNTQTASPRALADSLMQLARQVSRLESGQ

## CC(C)S[C@@H]1O[C@H](CO)[C@H](O)[C@H](O)[C@H]1O [IPTG, isopropyl-β-D-thiogalactopyranoside]
  EC50: 119 µmol/L

— article PMC10057847, “Precision engineering of biological function with large-scale measurements and machine learning” (PLOS ONE, 2023)
